Source: PubChem BioAssay (NCI)
“And” between values parts separate entries of the source, which are not always exact repeats. Equal values may be shown once.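 Method: 48-hour compound exposure of cells in 96-well plates, five concentrations, linear interpolation of endpoints. The concentration for 50% growth inhibition is given as GI50. TGI is the concentration that stops growth completely.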

Key:
Test in all cases: NCI-60 cell line screen, 48 h
BT-549 breast = tested on: BT-549 breast
HCT-116 colon = tested on: HCT-116 colon
HOP-92 NSCLC = tested on: HOP-92 NSCLC
LOX IMVI melanoma = tested on: LOX IMVI melanoma
M14 melanoma = tested on: M14 melanoma
SF-268 CNS = tested on: SF-268 CNS
SF-295 CNS = tested on: SF-295 CNS
SK-MEL-5 melanoma = tested on: SK-MEL-5 melanoma
SN12C renal = tested on: SN12C renal
SNB-19 CNS = tested on: SNB-19 CNS

Row | Compound | TGI (BT-549 breast) [µM] | TGI (HCT-116 colon) [µM] | TGI (HOP-92 NSCLC) | TGI (LOX IMVI melanoma) [µM] | TGI (M14 melanoma) [µM] | TGI (SF-268 CNS) [µM] | TGI (SF-295 CNS) | TGI (SK-MEL-5 melanoma) [µM] | TGI (SN12C renal) [µM] | TGI (SNB-19 CNS) [µM] | GI50 (BT-549 breast) | GI50 (HOP-92 NSCLC) | GI50 (SF-268 CNS) | GI50 (SNB-19 CNS) | GI50 (HCT-116 colon) [µM] | GI50 (SN12C renal) [µM]
1 | N=C(N)SCc1nc(-c2ccc(Cl)cc2)no1 | 50.6 | 31.9 | 77.6 µM | 31.2 | 45.6 | > 100 | > 100 µM | > 100 | 37.5 | > 100 | – | – | – | – | – | –
2 | COc1cc2nc(-c3cccs3)nc(N3CCN(c4ccccc4)CC3)c2cc1OC | > 100 | > 100 | > 100 µM | > 100 | > 100 | > 100 | > 100 µM | > 100 | > 100 | > 100 | – | – | – | – | – | –
3 | O=C(CCCCCNC(=O)c1ccc(Cl)cc1)NO | > 100 | 10.7 | 11.1 µM | 17 | > 100 | 57.1 | 36.1 µM | 13.9 | 24.4 | > 100 | – | – | – | – | – | –
4 | CCCCCCCCCCCC(=O)N(CCCCCCCCC)CC(O)C(O)C(OC1OC(CO)C(O)C(O)C1O)C(O)CO (stereo not drawn) | 36.9 | 32.8 | 34.4 µM | 40.2 | 36.9 | 39.3 | 40 µM | 35 | 36.1 | 40.4 | – | – | – | – | – | –
5 | C1=CC2C(C3CN(c4ccccc4)N=C13)C1C3C4C=CC21C=CC43 (stereo not drawn) | > 100 | > 100 | > 100 µM | > 100 | > 100 | > 100 | > 100 µM | > 100 | > 100 | > 100 | – | – | – | – | – | –
6 | CCOC(=O)c1ccc2nc3n(c2c1)C(c1c(F)cccc1F)SC3 (stereo not drawn) | > 100 | > 100 | > 100 µM | > 100 | > 100 | > 100 | > 100 µM | > 100 | > 100 | > 100 | – | – | – | – | – | –
7 | CC1(C)CCCCCC(O)C(O)CCC(C)(C)C1=O (stereo not drawn) | > 100 | > 100 | > 100 µM | > 100 | > 100 | > 100 | > 100 µM | > 100 | > 100 | > 100 | – | – | – | – | – | –
8 | N#Cc1ccc(-c2ccc(Cl)cc2)n(C2OC(CO)C(O)C(O)C2O)c1=S (stereo not drawn) | > 100 | > 100 | > 100 µM and 51.5 µM | > 100 | > 100 | > 100 | > 100 µM and 17.9 µM | > 100 | > 100 | > 100 | > 100 µM and 24.9 µM | > 100 µM and 14.6 µM | > 100 µM and 39.6 µM | > 100 µM and 26.4 µM | – | –
9 | NC(=Nc1ccccc1)N/N=C/c1c[nH]c2ccccc12 | 16.9 | 8.67 | 6.01 µM | 8.92 | 1.53 | 15 | 0.423 µM | 1.85 | 15.6 | 14.8 | – | – | – | – | – | –
10 | CSc1nnnc2ccccc12 | > 100 | > 100 | > 100 µM | > 100 | > 100 | > 100 | > 100 µM | > 100 | > 100 | > 100 | – | – | – | – | – | –
11 | COc1cc(C(c2ccccc2)N2C(=O)CC[C@H]2C(=O)O)cc(OC)c1OC (stereo partly drawn) | > 100 | > 100 | > 100 µM | > 100 | > 100 | > 100 | > 100 µM | > 100 | > 100 | > 100 | – | – | – | – | – | –
12 | CCOC(=O)c1nc2ccccc2nc1Nc1ccc(C(=O)OC)s1 | > 100 | > 100 | > 100 µM | > 100 | > 100 | > 100 | > 100 µM | > 100 | > 100 | > 100 | – | – | – | – | – | –
13 | CC1(C)C2CC3C(C)(C2)C31c1cc(Cl)ccc1N (stereo not drawn) | 30 | 17.5 | 28.6 µM | 30.5 | 24.8 | 28.3 | 28.6 µM | 27.1 | 27.5 | 33.5 | – | – | – | – | – | –
14 | Cc1cn(C2CC(O)C(Cn3nncc3Cn3nc(Br)c(=O)[nH]c3=O)O2)c(=O)[nH]c1=O (stereo not drawn) | > 100 | > 100 | > 100 µM | > 100 | > 100 | > 100 | > 100 µM | > 100 | > 100 | > 100 | – | – | – | – | – | –
15 | CCSC12OC3(CCCCCN3C1=O)C1C(=O)N(c3ccccc3)C(=O)C12 (stereo not drawn) | > 100 | > 100 | > 100 µM | > 100 | > 100 | > 100 | > 100 µM | > 100 | > 100 | > 100 | – | – | – | – | – | –
16 | CCOc1ccc2c(c1)C(/C(C(Cl)=C(Cl)Cl)=[N+](/[O-])OC(=O)c1ccccc1)=N2 | 97.8 | > 100 | > 100 µM | > 100 | > 100 | > 100 | > 100 µM | > 100 | > 100 | > 100 | – | – | – | – | – | –
17 | O=S(=O)(O)c1ccc(O)c(N=Nc2c(O)ccc3ccccc23)c1 | > 100 | > 100 | > 100 µM | > 100 | > 100 | > 100 | > 100 µM | > 100 | > 100 | > 100 | – | – | – | – | – | –

Row | Compound | TGI (BT-549 breast) [µM] | TGI (HCT-116 colon) [µM] | TGI (HOP-92 NSCLC) | TGI (LOX IMVI melanoma) [µM] | TGI (M14 melanoma) [µM] | TGI (SF-268 CNS) [µM] | TGI (SF-295 CNS) | TGI (SK-MEL-5 melanoma) [µM] | TGI (SN12C renal) [µM] | TGI (SNB-19 CNS) [µM] | GI50 (BT-549 breast) | GI50 (HOP-92 NSCLC) | GI50 (SF-268 CNS) | GI50 (SNB-19 CNS) | GI50 (HCT-116 colon) [µM] | GI50 (SN12C renal) [µM]
18 | O=C1C(c2ccccc2)=C(c2ccccc2)C1(Cl)Cl | 6.99 | 2.85 | 7.14 µM | 4.25 | 5.9 | 12.7 | 28.7 µM | 8.03 | 11.5 | 32.9 | – | – | – | – | – | –
19 | O=c1oc2ccccc2c(O)c1C(c1ccc(OCc2ccccc2)cc1)c1c(O)c2ccccc2oc1=O | 61.8 | > 100 | 91.6 µM | > 100 | > 100 | > 100 | > 100 µM | 60.1 | > 100 | > 100 | – | – | – | – | – | –
20 | Cc1cnc2c(c1)C(=O)N(c1ccc(Oc3ccccc3)cc1)S2(=O)=O | > 100 | > 100 | > 100 µM | > 100 | > 100 | > 100 | > 100 µM | > 100 | > 100 | > 100 | – | – | – | – | – | –
21 | CCOP(=O)(OCC)/C(=C/n1c(=S)[nH]c2ccccc21)C(=O)OC | > 100 | > 100 | > 100 µM | > 100 | > 100 | > 100 | > 100 µM | > 100 | > 100 | > 100 | – | > 100 µM | – | > 100 µM | – | –
22 | CC(C)OC1=C(CC2(C)OCCO2)C(=O)C12OCCO2 | > 100 | > 100 | > 100 µM | > 100 | > 100 | > 100 | > 100 µM | > 100 | > 100 | > 100 | – | – | – | – | – | –
23 | N=C1C=CC(=C(c2ccc(N)cc2)c2ccc(N)cc2)C=C1 | 7.97 | 13.9 | 12.7 µM | 15.4 | 15.8 | 14.9 | 21.4 µM | 9.5 | 7.37 | 18.6 | – | – | – | – | – | –
24 | C[Si](C)(C)OC1(C#N)c2ccccc2CCCC12CCCC2 (stereo not drawn) | > 100 | > 100 | 89.9 µM | 49.6 | > 100 | > 100 | > 100 µM | 56.2 | > 100 | > 100 | – | – | – | – | – | –
25 | C=CC(=O)N1C/C(=C\c2ccc(OC)cc2)C(=O)/C(=C/c2ccc(OC)cc2)C1 | 6.24 | 0.686 | 27 µM | 3.37 | 4.78 | 17.1 | 6.98 µM | > 20.4 | 6.83 | 28.3 | – | – | – | – | – | –
26 | CC(=O)NC1C(OCc2ccccc2)OC(CO)C(O)C1OC(C)C(=O)NC(C(=O)NC(CCC(=O)NCCCNc1ccc([N+](=O)[O-])c2[nH]c3ccccc3c(=O)c12)C(N)=O)C(C)C (stereo not drawn) | > 100 | > 100 | > 100 µM | > 100 | > 100 | > 100 | > 100 µM | > 100 | > 100 | > 100 | – | – | – | – | – | –
27 | COc1ccc(C2N(c3ccc(C)c(N=C=O)c3)C(=O)N3C(c4ccc(OC)cc4)N(c4ccc(C)c(N=C=O)c4)C(=O)N23)cc1 (stereo not drawn) | > 100 | > 100 | > 100 µM | > 100 | > 100 | > 100 | > 100 µM | > 100 | > 100 | > 100 | – | – | – | – | – | –
28 | COc1cc2c3c(n(C)c(=O)c2cc1OC)-c1cc2c(cc1/C3=C\CCCCl)OCO2 | > 100 | > 100 | > 100 µM | > 100 | > 100 | > 100 | 99.2 µM | 70.6 | > 100 | > 100 | – | – | – | – | 40.4 | > 100
29 | COC(=O)NC(Cc1ccccc1)NC(=O)OC(C)(C)C (stereo not drawn) | > 100 | > 100 | > 100 µM | > 100 | > 100 | > 100 | > 100 µM | > 100 | > 100 | > 100 | – | – | – | – | – | –
30 | OC(CCN1CCN(CCOC(c2ccccc2)c2ccccc2)CC1)c1ccccc1 (stereo not drawn) | 60.5 | 34.3 | 75.8 µM | 34.2 | 34.1 | 57 | 38.8 µM | 29.6 | 82.3 | 88.6 | – | – | – | – | – | –
31 | CCOC(=O)c1sc2nc(SC)nc3c2c1NCN3C | > 100 | > 100 | 27.9 µM | > 100 | > 100 | 61.5 | > 100 µM | > 100 | > 100 | 75.3 | – | – | – | – | – | –
32 | Clc1nc2nc(N3CCNCC3)nc(N3CCCC3)c2[nH]1 | 89.8 | 29.7 | 37.2 µM | 29.4 | 34.6 | 40.4 | 38.2 µM | 28.8 | 34.4 | 31.8 | – | – | – | – | – | –
33 | O=C(CSc1nc2ccc(I)cc2c(=O)n1Cc1ccccc1)Nc1ccccc1 | 54.6 | > 100 | 75 µM | > 100 | > 100 | 29.2 | 66.7 µM | > 100 | > 100 | 62.7 | – | – | – | – | – | –
34 | COc1cc2nc(-c3cccs3)nc(Nc3ccccc3C(=O)NN)c2cc1OC | > 100 | > 100 | > 100 µM | > 100 | > 100 | > 100 | > 100 µM | > 100 | > 100 | > 100 | – | – | – | – | – | –
